# Experimental data reported in patent US11969433B2, “Compositions and methods for muscle regeneration using prostaglandin E2” (The Board of Trustees of the Leland Stanford Junior …, priority 2016, dated 2024).
# Columns and labels:
# MuSCs [1] = experiment: EdU incorporation proliferation assay; assay type: cell-based, mouse; conditions: young MuSCs, PGE2 10 ng/ml
# Description: To assay proliferation, we used three different assays (hemocytometer, VisionBlue, and EdU). For each, we seeded MuSCs on flat hydrogels (hemocytometer and VisionBlue) or collagen-coated plates (EdU assay) at a density of 500 cells per cm^2 surface area. For hemocytometer cell number count, we collected cells at indicated timepoints by incubation with 0.5% trypsin in PBS for 5 min at 37° C. and quantified them using a hemocytometer at least 3 times. Additionally, we used the VisionBlue Quick Cell Viability Fluorometric Assay Kit (BioVision, catalog #K303) as a readout for cell growth in culture. Briefly, we incubated MuSCs with 10% VisionBlue in culture medium for 3 h, and measured fluorescence intensity on a fluorescence plate reader (Infinite M1000 PRO, Tecan) at Ex=530-570 nm, Em=590-620 nm. We assayed proliferation using the Click-iT EdU Alexa Fluor 555 Imaging kit (Life Technologies). Briefly, we incubated live cells with EdU (20 μM) for 1 hr prior to fixation, and stained nuclei according to the manufacturer's guidelines together with anti-MYOGENIN (Santa Cruz, catalog #sc576, 1:250) to assay differentiation. […] We quantified EdU positive cells using the MetaMorph Image Analysis software (Molecular Devices). Data analyses were blinded, where researchers performing cell scoring were unaware of the treatment condition given to sample groups analyzed.
# MuSCs [2] = experiment: Quantitative RT-PCR of MuSC transcripts; assay type: cell-based, mouse
# Text: We isolated RNA from MuSCs using the RNeasy Micro Kit (Qiagen). For muscle samples, we snap froze the tissue in liquid nitrogen, homogenized the tissues using a mortar and pestle, followed by syringe and needle trituration, and then isolated RNA using Trizol (Invitrogen). We reverse-transcribed cDNA from total mRNA from each sample using the SensiFAST™ cDNA Synthesis Kit (Bioline). We subjected cDNA to RT-PCR using SYBR Green PCR Master Mix (Applied Biosystems) or TaqMan Assays (Applied Biosystems) in an ABI 7900HT Real-Time PCR System (Applied Biosystems). We cycled samples at 95° C. for 10 min and then 40 cycles at 95° C. for 15 s and 60° C. for 1 min. To quantify relative transcript levels, we used 2-ΔΔCt to compare treated and untreated samples and expressed the results relative to Gapdh. For SYBR Green qRT-PCR, we used the following primer sequences: Gapdh. forward 5′-[…]-3′ (SEQ ID NO: 1), reverse 5′-CCCTTTTGGCTCCACCCT-3′ (SEQ ID NO: 2); Hpgd, forward 5′-[…]-3′ (SEQ ID NO: 3), reverse 5′-[…]-3′ (SEQ ID NO: 4); Ptges, forward 5′-GCTGTCATCACAGGCCAGA-3′ (SEQ ID NO: 5), reverse 5′-[…]-3′ (SEQ ID NO: 6); Ptges2, forward 5′-[…]-3′ (SEQ ID NO: 7), reverse 5′-[…]-3′ (SEQ ID NO: 8); Ptger1, forward 5′ GTGGTGTCGTGCATCTGCT-3′ (SEQ ID NO: 9), reverse, 5′ […]-3′ (SEQ ID NO: 10), and Ptger2, forward 5′-[…]-3′ (SEQ ID NO: 11), reverse 5′-[…]-3′ (SEQ ID NO: 12). TaqMan Assays (Applied Biosystems) were used to quantify Pax7. Myogenin. Slco2a1 (PGT), Ptger3 and Ptger4 in samples according to the manufacturer instructions with the TaqMan Universal PCR Master Mix reagent kit (Applied Biosystems). Transcript levels were expressed relative to Gapdh levels. For SYBR Green qPCR, Gapdh qPCR was used to normalize input cDNA samples. For Taqman qPCR, multiplex qPCR enabled target signals (FAM) to be normalized individually by their internal Gapdh signals (VIC).
# aged MuSCs = experiment: Clonal aged MuSC proliferation and death by time-lapse microscopy in hydrogel microwells; assay type: cell-based, mouse
# Text: We assayed clonal muscle stem cell proliferation by time-lapse microscopy as previously described^5,6. Briefly, we treated isolated aged MuSCs with PGE2 (Cayman Chemical) or vehicle (DMSO) for 24 hr. After five days of growth on hydrogels, cells were reseeded at a density of 500 cells per cm^2 surface area in hydrogel microwells with 600 μm diameter. For time-lapse microscopy we monitored cell proliferation for those wells with single cells beginning 12 hr (day 0) to two days after seeding and recorded images every 3 min at 10× magnification using a PALM/AxioObserver Z1 system (Carl Zeiss MicroImaging) with a custom environmental control chamber and motorized stage. We changed medium every other day in between the acquisition time intervals. We analyzed time-lapse image sequences using the Baxter Algorithms for Cell Tracking and Lineage Reconstruction to identify and track single cells and generate lineage trees^5,6,8-10.
# Viable and dead cells were distinguished in time-lapse sequences based on phase-contrast boundary and motility maintenance or loss, respectively. […] The values were estimated using the equations described in^6, and found in Table 1. We denote the proliferation rates in the two intervals p24 and p48 and the corresponding death rates d24 and d48. […] The modeled cell counts in the two time intervals are given by […]
# MuSCs [3] = experiment: MuSC transplantation into injured TA muscle, engraftment by bioluminescence imaging; assay type: in vivo, mouse; conditions: cultured MuSCs, acute 1-day PGE2, 250 cells transplanted day 7 into NOD-SCID mice
# [4] = aged MuSCs, 1 day PGE2, 48 h tracking
# [5] = first 24 hour interval, aged MuSC clones
# [6] = second 24 hour interval, aged MuSC clones
compound,measurement,setting,value
"CCCCC[C@H](O)/C=C/[C@H]1[C@H](O)CC(=O)[C@@H]1C/C=C\CCCC(=O)O [PGE2, prostaglandin E2]",cell division assayed by EDU incorporation,MuSCs [1],increased
same,transcript levels of Ptger1 and Ptger4,MuSCs [2]; after 24 hr PGE2 treatment of MuSCs,upregulated
same,Pax7 expression in aged MuSCs,"MuSCs [2]; aged MuSCs, 1-day pulse",maintenance
same,percent increase in dead cell count,"aged MuSCs; aged MuSC clones, acute PGE2",0.1%
same,percent increase in live cell count,"aged MuSCs; aged MuSC clones, acute PGE2, n=45 clones",5.4%
same,cell death,aged MuSCs; [4],profound reduction
same,cumulative cell numbers per clone,aged MuSCs; [4],remarkable increase
same,Estimated death rate d24,aged MuSCs; [5],0.0067 per hours
same,Estimated proliferation rate p24,aged MuSCs; [5],0.0475 per hours
same,Estimated death rate d48,aged MuSCs; [6],0.0012 per hours
same,Estimated proliferation rate p48,aged MuSCs; [6],0.0538 per hours
same,young MuSC regenerative capacity assessed by BLI,MuSCs [3],enhanced by an order of magnitude
